# Source: patent US20260364080A1, “PYRAZOLO-PYRIMIDINONE COMPOUNDS FOR USE IN METHODS OF INHIBITING WEE1 A KINASE” (Acrivon Therapeutics, Inc., priority 2023, published 2026)
# Assays:
# [1] = molecular target: T1, Myt1 kinase (CDK1 Thr14 phosphorylation in ACHN renal cell carcinoma cells) (Homo sapiens, UniProt Q99640); experiment: AlphaLISA assay, Myt1 kinase target engagement (phospho-CDK1 Thr14) in ACHN cells; format: cell-based; details: ACHN cells (marked *); 4 h treatment
# T1 construct: pCDK1 Thr14 AlphaLISA read-out
# T1 sequence (Q99640 1-499): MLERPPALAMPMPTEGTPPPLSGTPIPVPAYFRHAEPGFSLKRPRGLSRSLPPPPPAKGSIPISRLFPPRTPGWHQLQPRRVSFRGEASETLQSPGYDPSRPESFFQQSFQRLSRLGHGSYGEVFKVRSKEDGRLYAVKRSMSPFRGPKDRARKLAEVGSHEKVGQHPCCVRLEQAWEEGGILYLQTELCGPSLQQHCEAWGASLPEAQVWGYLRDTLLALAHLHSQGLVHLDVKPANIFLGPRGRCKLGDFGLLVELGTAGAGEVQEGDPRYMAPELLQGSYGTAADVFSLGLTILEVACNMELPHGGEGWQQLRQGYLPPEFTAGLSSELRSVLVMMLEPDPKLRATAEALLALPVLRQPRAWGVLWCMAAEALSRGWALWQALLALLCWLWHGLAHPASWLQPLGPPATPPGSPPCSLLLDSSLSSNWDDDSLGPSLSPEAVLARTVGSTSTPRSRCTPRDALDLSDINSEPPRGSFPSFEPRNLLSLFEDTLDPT
# Procedure: Each of an ACHN renal cell carcinoma cell line (ATCC) and a DAOY medulloblastoma cell line, and an A427 lung cancer line were cultured in Minimum Essential Medium Eagle supplemented with 10% fetal calf serum (Sigma), 1% Penicillin-Streptomycin and 10 mM HEPES buffer (HyClone). Cell cultures were kept in a humidified incubator at 37 °C and 5% CO2. Cells were routinely tested for Mycoplasma contamination.
# For target engagement assessment of Myt1 kinase inhibition, quantification of Cdk1 phosphorylated on threonine 14 was detected using the AlphaLISA® SureFire® Ultra™ Human Phospho-CDK1 (Thr14) assay (Perkin Elmer). DAOY or ACHN cells were seeded into tissue culture treated 96-well plates (VWR) to a density of 10,000 or 20,000 cells per well respectively. 24 h post seeding cells were treated for 4 h with compounds at concentrations ranging from 7 to 5000 nM. Cells were washed with PBS and lysed in 50 μl AlphaLISA lysis buffer before freezing at −80 C. Ten ul of the lysate was transferred to 384 well plates and incubated with AlphaLISA donor and acceptor beads according to the manufacturer's instructions. Dose response curves and EC50 values were calculated and visualized using GraphPad Prism version 9. Target engagement for Myt1 kinase can also be measured using the same AlphaLISA assay in OVCAR3 cells, an ovarian cancer cell line. NIH:OVCAR-3 (OVCAR3) cells are cultured in RPMI-1640 medium supplemented with 0.01 mg/ml insulin, 20% FBS, 1% Penicillin-Streptomycin and 10 mM HEPES buffer. 14,000 cells per well are seeded into 96 well tissue culture plates in full medium. Twenty-four hours post seeding, cells are treated with compound for 4 hours at concentrations ranging from 0.017 nM to 1000 nM.
# [2] = system: ACHN cells; experiment: Cell Titer Glo viability assay, ACHN cells; format: cell-based; details: Homo sapiens, 144 h, absolute EC50
# Outline: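 Cells grown in MEM with 10% FCS were seeded at 500 (A427), 400 (ACHN) or 250 (DAOY) per well and treated the next day with compound at 17 to 10 000 nM. Viability relative to untreated control was read at 144 h by CellTiter-Glo 2.0.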
# [3] = molecular target: T2, recombinant human Wee1A kinase (Homo sapiens, UniProt P30291); experiment: Wee1A kinase binding assay (LanthaScreen Eu time-resolved FRET); details: 30 nM tracer 178, 5 nM Wee1A kinase, 2 nM Eu-labeled antibody; 60 minutes at room temperature; read-out: Wee1A kinase Binding IC50
# T2 construct: full length Wee1 kinase was expressed by baculovirus in insect cells; purchased Invitrogen PV3817; host or cells: insect cells (baculovirus)
# T2 sequence (P30291 whole entry): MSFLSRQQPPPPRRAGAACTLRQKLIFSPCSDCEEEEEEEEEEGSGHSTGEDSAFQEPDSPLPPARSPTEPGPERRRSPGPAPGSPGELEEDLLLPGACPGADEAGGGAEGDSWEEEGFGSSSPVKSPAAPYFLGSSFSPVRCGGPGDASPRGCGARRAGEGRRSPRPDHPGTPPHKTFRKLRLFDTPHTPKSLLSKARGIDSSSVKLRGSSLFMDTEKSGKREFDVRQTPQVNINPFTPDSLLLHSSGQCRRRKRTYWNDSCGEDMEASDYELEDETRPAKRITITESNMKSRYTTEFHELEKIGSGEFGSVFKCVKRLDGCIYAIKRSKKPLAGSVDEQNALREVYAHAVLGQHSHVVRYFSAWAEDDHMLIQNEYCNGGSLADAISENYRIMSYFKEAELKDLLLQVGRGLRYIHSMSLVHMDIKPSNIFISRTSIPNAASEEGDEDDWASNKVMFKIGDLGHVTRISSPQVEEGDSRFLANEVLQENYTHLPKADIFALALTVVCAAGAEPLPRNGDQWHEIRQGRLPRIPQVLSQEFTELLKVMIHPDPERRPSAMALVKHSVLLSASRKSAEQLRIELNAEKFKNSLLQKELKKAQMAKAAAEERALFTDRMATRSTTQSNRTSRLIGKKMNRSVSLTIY
# Outline: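 Full-length, baculovirus-expressed GST-tagged Wee1A (5 nM) was mixed with 2 nM Eu-anti-GST antibody, 30 nM kinase tracer 178 and compound (1% DMSO). Buffer was 50 mM HEPES pH 7.5, 10 mM MgCl2, 1 mM EGTA, 0.01% Brij-35, incubated 60 min at room temperature. TR-FRET 665/615 nm emission ratios from duplicates were curve-fitted.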
# [4] = molecular target: T3, Wee1A kinase (CDK1 Tyr15 phosphorylation in ACHN renal cell carcinoma cells) (Homo sapiens, UniProt P30291); experiment: High-content imaging of pCdk1 Y15, Wee1A kinase target engagement in ACHN cells; format: cell-based; details: 4 h treatment, nuclear positivity for pCdk1 Y15 vs DMSO control, read-out: CDK1 Tyr15 Phosphorylation EC50
# T3 construct: pCDK1 Tyr15 immunofluorescence read-out
# T3 sequence (P30291 whole entry): as above
# Outline: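 EC50 values come from the per-well fraction of cells with nuclear pCdk1 Y15 staining, normalised to DMSO control, by automated immunofluorescence imaging. Cells were ACHN renal carcinoma, treated 4 h with compound at 7–5,000 nM or 0.3–200 nM.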
# [5] = molecular target: T4, Myt1 kinase (recombinant PMYT-1) (Homo sapiens, UniProt Q99640); experiment: Myt1 kinase binding assay (LanthaScreen Eu Kinase Binding Assay); details: 3 nM tracer 178, 2.5 nM PMYT-1, 1 nM Eu-labeled antibody; read-out: Myt1 kinase Binding IC50
# T4 construct: full length PMYT-1 was expressed by baculovirus in insect cells; purchased Invitrogen A30984; host or cells: insect cells (baculovirus)
# T4 sequence (Q99640 1-499): T1 sequence (Q99640 1-499)
# Outline: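 Compound binding to Myt1 kinase was assessed using the LanthaScreen Eu Kinase Binding Assay. This europium-based binding format was applied to quantify how strongly each compound bound to the Myt1 enzyme, and the binding affinity was reported for each compound as an IC50 value.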
EC50 [1] [nM],EC50 [2] [nM],IC50 [3] [nM],EC50 [4] [nM],IC50 [5] [nM],SMILES
< 200,≤ 100,< 10,< 100,20 to 100,"C=CCn1c(=O)c2cnc(Nc3ccc4c(cnn4CCCF)c3)nc2n1-c1cccc(OC2CCN(C)CC2)n1 [Compound 387, 2-allyl-6-((1-(3-fluoropropyl)-1H-indazol-5-yl)amino)-1-(6-((1-methylpiperidin-4-yl)oxy)pyridin-2-yl)-1,2-dihydro-3H-pyrazolo[3,4-d]pyrimidin-3-one]"
< 200,≤ 100,< 10,< 100,< 20,"C=CCn1c(=O)c2cnc(Nc3ccc4c(cnn4CCC)c3)nc2n1-c1cccc(OC2CCNCC2)n1 [Compound 390, 2-allyl-1-[6-(4-piperidyloxy)-2-pyridyl]-6-(1-propyl-1H-indazol-5-ylamino)-1,2-dihydro-3H-1,2,5,7-tetraazainden-3-one]"
< 200,≤ 100,< 10,< 100,20 to 100,"C=CCn1c(=O)c2cnc(Nc3ccc(OCCF)cc3)nc2n1-c1ccnc(OC2CCN(C)CC2)n1 [Compound 388, 2-allyl-6-((4-(2-fluoroethoxy)phenyl)amino)-1-(2-((1-methylpiperidin-4-yl)oxy)pyrimidin-4-yl)-1,2-dihydro-3H-pyrazolo[3,4-d]pyrimidin-3-one]"
200 to 500,≤ 100,< 10,< 100,< 20,"C=CCn1c(=O)c2cnc(Nc3ccc4c(c3)ncn4C(C)C)nc2n1-c1cccc(OC2CCN(C)CC2)n1 [Compound 400, 2-allyl-6-((1-isopropyl-1H-benzo[d]imidazol-5-yl)amino)-1-(6-((1-methylpiperidin-4-yl)oxy)pyridin-2-yl)-1,2-dihydro-3H-pyrazolo[3,4-d]pyrimidin-3-one]"
< 200,≤ 100,< 10,< 100,20 to 100,"C=CCn1c(=O)c2cnc(Nc3ccc4c(cnn4C)c3)nc2n1-c1cccc(O[C@@H]2CCN(C)[C@@H](C)C2)n1 (stereo in doubt) [Compound 403, rel-2-allyl-1-(6-(((2R,4S)-1,2-dimethylpiperidin-4-yl)oxy)pyridin-2-yl)-6-((1-methyl-1H-indazol-5-yl)amino)-1,2-dihydro-3H-pyrazolo[3,4-d]pyrimidin-3-one]"
< 200,≤ 100,< 10,< 100,< 20,"C=CCn1c(=O)c2cnc(Nc3ccc4c(cnn4CC(C)C)c3)nc2n1-c1cccc(OC2CCN(C)CC2)n1 [Compound 394, 2-allyl-6-((1-isobutyl-1H-indazol-5-yl)amino)-1-(6-((1-methylpiperidin-4-yl)oxy)pyridin-2-yl)-1,2-dihydro-3H-pyrazolo[3,4-d]pyrimidin-3-one]"
< 200,≤ 100,< 10,< 100,< 20,"C=CCn1c(=O)c2cnc(Nc3ccc4nn(C(C)(C)C)cc4c3)nc2n1-c1cccc(OC2CCN(C)CC2)n1 [Compound 396, 2-allyl-6-((2-(tert-butyl)-2H-indazol-5-yl)amino)-1-(6-((1-methylpiperidin-4-yl)oxy)pyridin-2-yl)-1,2-dihydro-3H-pyrazolo[3,4-d]pyrimidin-3-one]"

# The remaining lines, values behind:
SMILES,EC50 [1] [nM],EC50 [2] [nM],IC50 [3] [nM],EC50 [4] [nM],IC50 [5] [nM]
"C=CCn1c(=O)c2cnc(Nc3ccc4c(cnn4C)c3)nc2n1-c1cccc(NC2CCN(C)CC2)n1 [Compound 129, 6-[(1-methyl-1H-indazol-5-yl)amino]-1-{6-[(1-methylpiperidin-4-yl)amino]pyridin-2-yl}-2-(prop-2-en-1-yl)-1H,2H,3H-pyrazolo[3,4-d]pyrimidin-3-one]",> 1000,≤ 100,< 10,< 100,100 to 500
"C=CCn1c(=O)c2cnc(Nc3ccc4c(cnn4C)c3)nc2n1-c1cccc(OC2CCN(CCC)CC2)n1 [Compound 322, 2-allyl-6-(1-methyl-1H-indazol-5-ylamino)-1-[6-(1-propyl-4-piperidyloxy)-2-pyridyl]-1,2-dihydro-3H-1,2,5,7-tetraazainden-3-one]",200 to 500,≤ 100,< 10,< 100,20 to 100
"C=CCn1c(=O)c2cnc(Nc3ccc(N4CCOCC4)cc3)nc2n1-c1cccc(OC2CCN(C)CC2)n1 [Compound 278, 2-allyl-1-(6-((1-methylpiperidin-4-yl)oxy)pyridin-2-yl)-6-((4-morpholinophenyl)amino)-1,2-dihydro-3H-pyrazolo[3,4-d]pyrimidin-3-one]",< 200,≤ 100,< 10,< 100,20 to 100
"C=CCn1c(=O)c2cnc(Nc3ccc4c(cnn4C)c3)nc2n1-c1cccc(OC2CCCN(C)CC2)n1 (single isomer, unassigned) [Compound 373]",200 to 500,≤ 100,< 10,< 100,< 20
"C=CCn1c(=O)c2cnc(Nc3ccc(F)c(C)c3)nc2n1-c1cccc(OC2CCN(C)CC2)n1 [Compound 206, 6-[(4-fluoro-3-methylphenyl)amino]-1-{6-[(1-methylpiperidin-4-yl)oxy]pyridin-2-yl}-2-(prop-2-en-1-yl)-1H,2H,3H-pyrazolo[3,4-d]pyrimidin-3-one]",200 to 500,≤ 100,< 10,< 100,20 to 100
"C=CCn1c(=O)c2cnc(Nc3ccc4c(c3)c(C)nn4C)nc2n1-c1cccc(OC2CCN(C)CC2)n1 [Compound 346, 2-allyl-6-((1,3-dimethyl-1H-indazol-5-yl)amino)-1-(6-((1-methylpiperidin-4-yl)oxy)pyridin-2-yl)-1,2-dihydro-3H-pyrazolo[3,4-d]pyrimidin-3-one]",200 to 500,≤ 100,< 10,< 100,20 to 100
"[2H]C([2H])([2H])c1cccc(Nc2ncc3c(=O)n(CC=C)n(-c4cccc(OC5CCN(C)CC5)n4)c3n2)c1 [Compound 333, 2-allyl-6-((3-(methyl-d3)phenyl)amino)-1-(6-((1-methylpiperidin-4-yl)oxy)pyridin-2-yl)-1,2-dihydro-3H-pyrazolo[3,4-d]pyrimidin-3-one]",200 to 500,≤ 100,< 10,< 100,20 to 100
